Assay results taken from patent US20200077655A1, “Use of an Acyclic Picolinamide Compound as a Fungicide for Control of Phytopathogenic Fungi in Orchard, Vineyard and Plantation Crops” (Dow AgroSciences LLC, priority 2017, published 2020).

Legend:
Assay type in all cases: in vivo
[1] = tested on: Podosphaera clandestina (PODOCL); assay: Field assessment of powdery mildew in cherry; settings: cherry leaves, 14 DAA5
Text: A fungicidal treatment containing Compound I, applied in an SC formulation (MSO built-in) and tank mixed with an adjuvant (Agnique BP-420, 50% w/w at 0.2% v/v or Adsee C80W 80%), was sprayed on cherry trees (PRNAV, Sentennial variety) at growth stage (mid petal fall, flowers fading, petals falling; BBCH 67-85) at rates of 60, 120, 150, and 180 g ai/ha. The experimental plots were run with natural infestation. The treatment was part of an experimental trial designed as a randomized complete block (RCB) with four replications and a plot of approximately 4×6 m. Compound I was applied at water volume of 1000 L/ha, using an Airblast sprayer.
Disease severity (percentage of visual diseased foliage (leaf) on whole plot) and disease incidence were assessed 14 days after application 5 (14 DAA5). The disease infection was recorded. Disease was evaluated as percent of leaves with disease (incidence), percent diseased leaf area (severity, a disease index calculated (percent (%) incidence×percent (%) severity) and then percent (%) control was calculated using Abbotts from the disease index values. Results are given in Table 12.

[2] = tested on: Botrytis cinerea (BOTRCI); assay: Strawberry shelf-life simulation, gray mold
Text: Strawberry shelf-life simulation (3 repetitions): Fungicidal treatments were applied to strawberry plants grown in a shade house to obtain healthy fruits. Once matured, the healthy fruits were harvested and transferred to a laboratory for a shelf-simulation study. In the laboratory, the fruits were bleach decontaminated to remove residual chemical residue. Compound I, applied in a 5% EC formulation and mixed with an adjuvant (Trycol, 50% w/w at 0.2% v/v), was sprayed on the healthy strawberries at rates of 50, 100 and 150 grams of active ingredient per hectare (g ai/ha) and allowed to dry completely. The fruits were then inoculated with gray mold and incubated on a laboratory bench at 20° C. Disease severity was recorded as a percentage of fruit infection assessments. Gray mold infection was assessed twice after the initial inoculation, 4 days after infection (4DAI) and 6DAI. Area under the disease progress curve (AUDPC) was calculated for each repetition using the sets of recorded severity data. Relative AUDPC (% control based on AUDPC) was calculated as percent of the nontreated control.

[3] = tested on: Monilinia fructicola (MONIFC); assay: Field assessment on brown rot of fruits on nectarines, harvest and shelf life simulation; settings: curative; for Percent control based on fruit incidence vs untreated, Harvest: 8 DAAB
Text: A fungicidal treatment containing Compound I, applied in a 5% EC formulation and tank mixed with an adjuvant (Trycol, 50% w/w at 0.2% v/v), was sprayed twice during fruit ripening on the plant canopy of nectarines (PRNPN, Calfornia variety) at rates of 50, 100, and 150 grams of active ingredient per hectare (g ai/ha). The applications were done at 8 day intervals with disease inoculation 12 days before the first application (curative). The treatment was part of an experimental trial designed as a randomized complete block with four replications and a plot of approximately 4.3×6.0 m, with compound I being applied using a MISTBLOW, Solo backpack applicator at a water volume of 800 L/ha.
The pathogen was certified to be Monilinia fructicola (MONIFC) by means of an immunoassay followed by a PCR assay on material collected (mummies) from the trial. The brown rot disease at harvest was evaluated on 100 randomly picked fruits per plot, 8 days after application B (8 DAAB), calculating the incidence of fruit with disease and then the percent control using Abbotts. Visually healthy samples of 60 fruits per plot were then placed in alveolus plates and kept for 5 days in cold storage. The samples were then maintained for […] at about 20° C. (shelf life period). Several assessments were made to check the development of disease during the shelf life simulation. In particular, the percentage of rotten fruits were checked at the exit from cold storage (after 5 days of refrigeration, 13 DAAB) followed by 15, 17, 20 and 23 DAAB. Percent of fruit with disease was calculated (incidence) amd then percent control was calculated using Abbotts.

[4] = tested on: Tranzschelia discolor (TRANDI); assay: Field assessment of rust in almond; settings: untreated 61.3
Text: A fungicidal treatment containing Compound I, applied in an SC formulation (MSO-buit in) and tank mixed with an adjuvant (Adsee C80W 80%), was sprayed on almond trees (PRNDU, Butte variety) with 2 applications at growth stages BBCH67-69 and BBCH69-72 at rates of 60, 120, 150, and 180 g ai/ha. The experimental plots were run under natural infestation. The treatments were part of an experimental trial designed as a randomized complete block (RCB) with three replications and a plot of approximately 16×22 ft. Compound I was applied at water volume of 100 gal/acre, using a motorized backpack sprayer.
Percent leaf incidence (calculated from number of visual diseased leaves per 50 leaves per one tree) was assessed and recorded at 105 days after application A (105 DAAA).

[5] = tested on: Stigmina carpophila (STIGCA); assay: Field assessment of shot hole in almond, leaf and nut incidence; settings: for Leaf Incidence of STIGCA 121 DAAA: untreated 3.1; for Nut Incidence of STIGCA 121 DAAA: untreated 6.3
Text: A fungicidal treatment containing Compound I, applied in an SC formulation (MSO built-in) and tank mixed with an adjuvant (Adsee C80W 80%), was sprayed on almond trees (PRNDU, Butte variety), 2 applications, […] The experimental plots were run under natural infestation. The treatment was part of an experimental trial designed as a randomized complete block (RCB) with three replications and a plot of approximately 16×22 ft. Compound I was applied at water volume of 100 gal/acre, using a motorized backpack sprayer (Orifice nozzle 2.3 setting).
Leaf incidence (number of visual diseased leaves per 20 leaves per tree on the whole plot) was assessed 121 days after application A (121 DAAA).
Nut incidence (number of visual diseased nuts per 10 nuts per tree on the whole plot) was assessed 121 days after application A (121 DAAA).

[6] = 120 g ai/ha, Adsee C80W, 300 g ai/ha

SMILES: COc1ccnc(C(=O)N[C@@H](C)C(=O)O[C@@H](C)C(c2ccc(F)cc2)c2ccc(F)cc2)c1OC(C)=O [Compound I, (S)-1,1-bis(4-fluorophenyl)propan-2-yl (3-acetoxy-4-methoxypicolinoyl)-L-alaninate]
- Calc Percent Control of PODOCL ([1]; 60 g ai/ha, Agnique BP420, 240 mL/ha): 64.6%
- Calc Percent Control of PODOCL ([1]; 60 g ai/ha, MSO, 120 g ai/ha): 63.3%
- Calc Percent Control of PODOCL ([1]; 120 g ai/ha, Adsee C80W 80%, 300 g ai/ha): 44.4%
- Calc Percent Control of PODOCL ([1]; 120 g ai/ha, Agnique BP420, 480 mL/ha): 46.9%
- Calc Percent Control of PODOCL ([1]; 120 g ai/ha, MSO, 240 g ai/ha): 37.9%
- Calc Percent Control of PODOCL ([1]; 150 g ai/ha, Agnique BP420, 600 mL/ha): 44.4%
- Calc Percent Control of PODOCL ([1]; 150 g ai/ha, MSO, 300 g ai/ha): 91.7%
- Calc Percent Control of PODOCL ([1]; 180 g ai/ha, Agnique BP420, 720 mL/ha): 48.7%
- Calc Percent Control of PODOCL ([1]; 180 g ai/ha, MSO, 360 g ai/ha): 89.1%
- Percent control (AUDPC) from fruit severity assessments ([2]; 50 g ai/ha): B (51-75)
- Percent control (AUDPC) from fruit severity assessments ([2]; 100 g ai/ha): A (76-100)
- Percent control (AUDPC) from fruit severity assessments ([2]; 150 g ai/ha): A (76-100)
- Percent control based on fruit incidence vs untreated, Shelf Life Simulation ([3]; 50 g ai/ha): C (26-50)
- Percent control based on fruit incidence vs untreated, Harvest ([3]; 50 g ai/ha): B (51-75)
- Percent control based on fruit incidence vs untreated, Shelf Life Simulation ([3]; 100 g ai/ha): C (26-50)
- Percent control based on fruit incidence vs untreated, Harvest ([3]; 100 g ai/ha): B (51-75)
- Percent control based on fruit incidence vs untreated, Shelf Life Simulation ([3]; 150 g ai/ha): B (51-75)
- Percent control based on fruit incidence vs untreated, Harvest ([3]; 150 g ai/ha): B (51-75)
- Percent Visual Leaf Incidence of TRANDI 89 DAAB ([4]; 60 g ai/ha, MSO, 120 g ai/ha): 13.3%
- Percent Visual Leaf Incidence of TRANDI 89 DAAB [4, 6]: 11.3%
- Percent Visual Leaf Incidence of TRANDI 89 DAAB ([4]; 120 g ai/ha, MSO, 240 g ai/ha): 9.3%
- Percent Visual Leaf Incidence of TRANDI 89 DAAB ([4]; 150 g ai/ha, MSO, 300 g ai/ha): 6.0%
- Percent Visual Leaf Incidence of TRANDI 89 DAAB ([4]; 180 g ai/ha, MSO, 360 g ai/ha): 6.0%
- Leaf Incidence of STIGCA 121 DAAA ([5]; 60 g ai/ha, MSO, 120 g ai/ha): 3.0 Number of Leaves per 20 Leaves
- Nut Incidence of STIGCA 121 DAAA ([5]; 60 g ai/ha, MSO, 120 g ai/ha): 5.6 Number of Nuts per 10 Nuts
- Leaf Incidence of STIGCA 121 DAAA [5, 6]: 1.4 Number of Leaves per 20 Leaves
- Nut Incidence of STIGCA 121 DAAA [5, 6]: 2.5 Number of Nuts per 10 Nuts
- Leaf Incidence of STIGCA 121 DAAA ([5]; 120 g ai/ha, MSO, 240 g ai/ha): 2.2 Number of Leaves per 20 Leaves
- Nut Incidence of STIGCA 121 DAAA ([5]; 120 g ai/ha, MSO, 240 g ai/ha): 6.0 Number of Nuts per 10 Nuts
- Leaf Incidence of STIGCA 121 DAAA ([5]; 150 g ai/ha, MSO, 300 g ai/ha): 1.7 Number of Leaves per 20 Leaves
- Nut Incidence of STIGCA 121 DAAA ([5]; 150 g ai/ha, MSO, 300 g ai/ha): 4.4 Number of Nuts per 10 Nuts
- Leaf Incidence of STIGCA 121 DAAA ([5]; 180 g ai/ha, MSO, 360 g ai/ha): 1.9 Number of Leaves per 20 Leaves
- Nut Incidence of STIGCA 121 DAAA ([5]; 180 g ai/ha, MSO, 360 g ai/ha): 4.4 Number of Nuts per 10 Nuts
